Test results: ChEMBL document CHEMBL1135431, “1-[2-[(5-Cyanopyridin-2-yl)amino]ethylamino]acetyl-2-(S)-pyrrolidinecarbonitrile: a potent, selective, and orally bioavailable dipeptidyl peptidase IV inhibitor with antihyperglycemic properties” (J Med Chem, 2002)

Experiments:
[1] = Half-life (t1/2) after an oral dose of 1 uM/Kg in monkey; assay type: ADME, organism-based; conditions: simiiformes, in vivo
[2] = Half-life (t1/2) after an oral dose of 100 mg in human; assay type: ADME, organism-based; conditions: in vivo
Monkey [3] = assay: In vivo ability to reduce the peak plasma glucose levels in monkey compared to control ( 88 +/- 3 mg/dL) during an oral glucose tolerance test (OGTT); assay type: functional, Cercopithecidae
[4] = Cmax after an oral dose of 10 umol/Kg in male Sprague-Dawley rats; assay type: ADME, organism-based; set-up: dose 10 umol/Kg, route oral; conditions: rat, in vivo
[5] = Clearance from plasma in male Sprague-Dawley rats; assay type: ADME, organism-based; conditions: rat
[6] = Absolute bioavailability in maleSprague-Dawley rats; assay type: ADME, organism-based; conditions: male, Sprague-Dawley, rat, in vivo
[7] = Steady state volume of distribution in male Sprague-Dawley rats; assay type: ADME, organism-based; conditions: rat, in vivo
Monkey [8] = assay: In vivo ability to reduce the plasma glucose levels ( in 0-90 minutes glucose AUC) in monkey compared to control during an oral glucose tolerance test (PGTT); assay type: functional, Cercopithecidae
[9] = Cmax after an oral dose of 10 umol/Kg in male cynomolgus monkeys; assay type: ADME, organism-based, Macaca fascicularis; set-up: dose 10 umol/Kg, route oral; conditions: cynomolgus monkey, in vivo
[10] = Clearance from plasma in male cynomolgus monkeys; assay type: ADME, organism-based, Macaca fascicularis; conditions: cynomolgus monkey
[11] = Absolute bioavailability in male cynomolgus monkeys; assay type: ADME, organism-based, Macaca fascicularis; conditions: cynomolgus monkey, in vivo
[12] = Steady state volume of distribution male cynomolgus monkeys; assay type: ADME, organism-based, Macaca fascicularis; conditions: cynomolgus monkey, in vivo
Dipeptidyl peptidase 4 = Dipeptidyl peptidase 4 (Rattus norvegicus, UniProt P14740); assay: In vitro inhibitory activity against Dipeptidyl peptidase IV (DPP-IV) extracted from rat plasma; assay type: cell-free
Dipeptidyl peptidase 4, sequence (P14740 whole entry): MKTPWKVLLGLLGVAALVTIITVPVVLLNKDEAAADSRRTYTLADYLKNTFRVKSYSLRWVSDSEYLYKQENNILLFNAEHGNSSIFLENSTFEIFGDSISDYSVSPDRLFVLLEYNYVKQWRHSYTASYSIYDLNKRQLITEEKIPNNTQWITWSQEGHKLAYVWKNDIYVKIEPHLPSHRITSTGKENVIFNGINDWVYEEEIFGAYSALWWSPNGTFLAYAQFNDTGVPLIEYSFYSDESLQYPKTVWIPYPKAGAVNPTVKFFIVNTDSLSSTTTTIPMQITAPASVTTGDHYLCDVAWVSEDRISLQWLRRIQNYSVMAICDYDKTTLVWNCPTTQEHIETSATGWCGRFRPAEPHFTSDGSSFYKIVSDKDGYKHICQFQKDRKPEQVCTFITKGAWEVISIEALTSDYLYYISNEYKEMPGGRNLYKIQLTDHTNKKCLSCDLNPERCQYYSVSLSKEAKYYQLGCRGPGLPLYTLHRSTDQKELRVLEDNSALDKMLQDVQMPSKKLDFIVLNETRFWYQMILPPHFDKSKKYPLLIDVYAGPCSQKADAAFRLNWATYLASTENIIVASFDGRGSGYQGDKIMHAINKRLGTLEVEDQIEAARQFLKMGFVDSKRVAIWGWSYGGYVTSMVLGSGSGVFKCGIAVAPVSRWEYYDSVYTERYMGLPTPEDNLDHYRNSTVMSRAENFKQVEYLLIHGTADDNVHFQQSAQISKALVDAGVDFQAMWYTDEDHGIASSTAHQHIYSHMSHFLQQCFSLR

| half-life [1] [min] | half-life [2] [min] | Cmax [4] [µM] | clearance [5] [mL/min/kg] | bioavailability [6] [%] | Vd [7] [L/kg] | Cmax [9] [µM] | clearance [10] [mL/min/kg] | bioavailability [11] [%] | Vd [12] [L/kg] | IC50 (Dipeptidyl peptidase 4) [nM] | Structure (SMILES) | Reduction (Monkey [3]) | Reduction (Monkey [8]) [%] |
| --- | --- | --- | --- | --- | --- | --- | --- | --- | --- | --- | --- | --- | --- |
| 51 | 51 | 3.65 | 28 | ≥ 74 | 0.67 | 7.56 | 21.9 | ≥ 74 | 0.841 |  | N#Cc1ccc(NCCNCC(=O)N2CCC[C@H]2C#N)nc1 | 98 | 38 |
|  |  |  |  |  |  |  |  |  |  | 2.8 | N#C[C@@H]1CCCN1C(=O)[C@@H](N)C1CCCCC1 |  |  |
